Usually melting point stands for the temperature, or range, at which the solid turns liquid. For the compound `NS(=O)(=O)c1ccccc1-c1ccc(Cn2c(-c3ccccc3)nc(Cl)c2C=O)cc1`, the melting point turned out to be 215 °C.

With `COC(=O)C1(CC#N)C(=O)N(C)C(=O)c2ccccc21` (configuration not stated), the melting point was in the range of 120 to 122 °C.

`O=C(C#Cc1ccc(CN2CCCCC2)cc1)Nc1ccc(-c2ccc(Cl)cc2)cc1` yielded a melting point of 180 °C.

Consider `COC(=O)CCc1cc(-n2nc3ccc(Br)cc3n2)c(O)c(C(C)(C)C)c1`, for which the melting point lay within 116 to 118 °C.

Consider `CN[C@@H]1COc2ccc(Cl)c(-c3ccccc3Cl)c2O1`, for which the melting point came to 105 °C.

Turning to `Cc1cccc(NC(=O)NC2N=C(c3ccccc3)c3ccccc3N(Cc3nccc4ccccc34)C2=O)c1` (racemic), the melting point was 218 to 221 °C.

Consider `CC1(C)COC(c2sccc2C2c3cc4c(cc3OCC2[N+](=O)[O-])OCO4)=N1` (configuration not stated), for which the melting point is 138 to 140 °C.

As for `O=C(Cc1ccc(-n2ccnc2)cc1)NOc1ccccn1`, the melting point stood at 110 °C.

On to `Cc1cc(I)cc2[nH]c(=O)oc12`, for which the melting point lay within 248 to 250 °C.

Compound `COc1cc(OC)c(-c2cc3ccccc3[nH]2)cc1C=CC(=O)c1ccc(S(=O)(=O)N(C)C)cc1` returned a melting point of 158 to 162 °C.

`O=C(O)CC=C(c1ccccc1)c1ccc(F)cc1` yielded a melting point of 98 to 100 °C.

Take `O=C(c1ccccc1)c1cc(-c2ccccc2)c(OS(=O)(=O)c2ccc(C(=O)O)c(O)c2)c(-c2ccccc2)c1`: the melting point worked out at 217 °C.

As for `CC(=O)N1C(=O)C(C(=O)c2cccs2)c2cc(Cl)ccc21` (configuration not stated), the melting point lay in the range of 168 to 170 °C.

`CCOC(=O)C(C(=O)N(C)C)=C(OC(=O)c1ccccc1)c1ccc(Cl)cc1Cl` gave a melting point of 106 °C.

The compound `COC(=O)CN1C(=O)c2c(c3cc(C)ccc3n2C)S1(=O)=O` had a melting point of 248 °C.

Compound `Cc1ccc(Cc2cnc(NCCCN)[nH]c2=O)cn1` came in with a melting point of 162 to 164 °C.

Compound `Nc1ccccc1C(=O)Nc1ccc(Br)cc1` showed a melting point of 139 to 144 °C.

`O=[N+]([O-])c1ccc(C(O)c2ccoc2)cc1` (configuration not stated) showed a melting point of 50 to 52 °C.

As to `N#Cc1nn(-c2c(Cl)cc(C(F)(F)F)cc2Cl)c(N)c1C1C=CCCCC1` (configuration not stated), the melting point is 158 to 159 °C.

The compound `COc1ccc(-c2cn3ccc(C)cc3n2)cc1` returned a melting point of 157 to 160 °C.

`O=C(N[C@H](Cc1ccc(C(F)(F)F)cc1)[C@@H](O)c1cccc2ccccc12)C1CCCCC1` (racemic) came in with a melting point of 156 to 157 °C.

For `O=S1(=O)NCN(C2CC2)c2c1ccc(Br)c2Cl`, the melting point was in the range of 128 to 131 °C.

The compound `OCCN1CCC(Nc2nc3ccccc3n2Cc2ccc(F)cc2)CC1` returned a melting point of 139 °C.

`CN(CCN1CCNC1=O)Cc1cn(-c2ccc(F)cc2)c2ccc(Cl)cc12` showed a melting point of 141 to 143 °C.

Compound `COc1cc(Cl)c2c(=O)c(Br)coc2c1` registered a melting point of 176 to 177 °C.

`CCOC(=O)N(C)N(C)C(=S)Nc1cc(Cl)cc(Cl)c1` registered a melting point of 147 to 149 °C.

On to `CC(C)n1nc(-c2sc(NC(=O)CCNCc3ccccn3)nc2-c2ccccc2)ccc1=O`, for which the melting point fell in the range of 200 to 201 °C.

In turn, `COc1nc(C(F)(F)F)cc(=O)n1-c1cc(OCCON=C(C)C)c(Cl)cc1F` had a melting point of 136 to 138 °C.

`CSC(=S)NN=Cc1nc(Cc2ccccc2)[nH]c1C`: the melting point lay in the range of 207 to 210 °C.

With `CC(C)(C)C(=O)Oc1ccc(-c2nnn(C(C(=O)NCC(=O)O)c3ccccc3)n2)cc1` (configuration not stated), the melting point lay in the range of 86 to 93 °C.

The compound `Cc1cc(Cl)ccc1Oc1ccc([N+](=O)[O-])cc1C#N` came in with a melting point of 144 to 146 °C.

The compound `O=C(O)CCCCCCCCCCCCC(=O)ON1C(=O)CCC1=O` gave a melting point of 116 to 118 °C.

Compound `OC(CCc1ccoc1)c1cnc2sc3c(n12)CCCCC3` (configuration not stated) returned a melting point of 153 to 155 °C.

With `Cn1ccnc1-c1ccccc1N`, the melting point lay in the range of 152 to 153 °C.

`Cc1cc([N+](=O)[O-])cc(C=O)c1O` displayed a melting point of 132 to 133 °C.

Take `COC(=O)c1cccc(-c2nnc(-c3ccc(-c4cccc(C)c4)cc3)o2)c1`: the melting point was in the range of 147 to 148 °C.

Regarding `O=C(O)c1ccc(CCCC2SCC(=O)N2CCC2(O)CCCCC2)s1` (configuration not stated), the melting point was 122 to 123 °C.

In the case of `CCc1nn2c(-c3ccccc3)ccnc2c1C#N`, the melting point fell in the range of 132 to 134 °C.

The compound `COC(=O)/C=C/n1cnc2c(C(C)C)cc(C(C)C)cc2c1=O` registered a melting point of 102 to 103 °C.

In turn, `c1ccc(-c2cnc3ncnn3c2)cc1` registered a melting point of 164 to 167 °C.

The compound `COC(=O)C1=C(C)NC(C=O)=C(C(=O)OC)C1c1cccc2c(=O)c(C)c(-c3ccccc3)oc12` (configuration not stated) gave a melting point of 216 °C.

With `N#Cc1cnc(Nc2ccc(OCCn3cnnc3)cc2)nc1-c1cccs1`, the melting point is 228 °C.

Compound `O=C(O)COc1cccc(C(O)C(c2ccccc2)C2SCCCS2)c1` (configuration not stated) yielded a melting point of 99 to 101 °C.

`O=[N+]([O-])c1cc(CS)cc(O)c1O` returned a melting point of 179 to 185 °C.

Compound `Cc1c2sc3ccccc3nc-2c2c(O)cccc2c1=O` gave a melting point of 226 to 228 °C.

Compound `Cc1cc(C2=NN=C(C=NNC(N)=O)Cc3cc4c(cc32)OCO4)ccc1[N+](=O)[O-]` displayed a melting point of 260 to 264 °C.

For `CCN1CCN(CCCOc2cc3ncc(C#N)c(Nc4ccc(Sc5nc(C)c(C)n5CC)c(Cl)c4)c3cc2OC)CC1`, the melting point was 229 to 230 °C.

Regarding `COc1ccc(Nc2c([N+](=O)[O-])cc([N+](=O)[O-])cc2C(F)(F)F)nc1`, the melting point lay within 102 to 105 °C.

Compound `O=S(=O)(On1nnc2ccc(Cl)cc21)c1ccc(Cl)cc1` had a melting point of 125 to 127 °C.

`O=c1nc(N2CCCc3c(Br)cccc32)sc2ncccc12`: the melting point was 173 to 174 °C.

With `Cc1ccc(Cl)cc1N1CCN(c2nc(=O)c3cc(C(F)(F)F)cc([N+](=O)[O-])c3s2)CC1`, the melting point was in the range of 158 to 161 °C.

As for `CC(O)C(O)c1nc2c(C(F)(F)F)cccc2c(O)c1C(=O)Nc1nccs1` (configuration not stated), the melting point turned out to be 275 °C.

With `O=C(NCc1cc(C(F)(F)F)cc(C(F)(F)F)c1)c1c(-c2ccccc2)c2cccnc2c(=O)n1CCCO`, the melting point fell in the range of 129 to 130 °C.

For the compound `O=C1C(=O)N2CCSc3cc(Br)cc1c32`, the melting point came out at 196 °C.

In the case of `O=C(O)CCCCCc1nn(Cc2ccccc2)c2c1CCC2`, the melting point was 94 to 95 °C.

`CCc1cc(C)cc(CC)c1C1C(=O)CC(CC(C)S(=O)(=O)CC)CC1=O` (configuration not stated) gave a melting point of 62 to 65 °C.

Consider `CCC(C)n1ncn(-c2ccc(N3CCN(c4ccc(OCC(O)(Cn5cncn5)c5ccc(Cl)cc5Cl)cc4)CC3)nc2)c1=O` (configuration not stated), for which the melting point was in the range of 84 to 87 °C.

Regarding `CCOC(=O)Cc1ccc(Oc2ccc([N+](=O)[O-])cc2)cc1`, the melting point fell in the range of 70.5 to 73 °C.

Take `CCCCCCCCCCNc1c(Nc2ccc(CCCNC[C@H](O)COc3cccc4[nH]c5ccccc5c34)cc2)c(=O)c1=O`: the melting point stood at 225 °C.

In the case of `O=C1c2cccc3c(F)ccc(c23)C(=O)N1O`, the melting point is 257 to 261 °C.

`CCN1c2ncc(C#Cc3cccnc3)cc2C(=O)N(C)c2cccnc21` came in with a melting point of 178 to 180 °C.

Regarding `N#Cc1ccc2c(c1)Sc1ccccc1O2`, the melting point is 215 °C.
